The source made the active and inactive calls. The calls are words filed in the database; no cut-off is given here.

Assay [1] concerns U-937. The assay can be described thus: Induction of apoptosis in human U-937 cells assessed as increased p21 protein expression level at 1 to 5 uM incubated for 24 hrs by immunoblotting analysis. Format: functional, cell-based. The settings on record: dose 1-5 µM.
Assay [2] has as its target T1, Histone deacetylase (Homo sapiens) (UniProt Q13547+O15379+Q9UBN7+Q92769+Q9UQL6+Q8WUI4+Q9BY41+Q96DB2+P56524+Q9UKV0+Q969S8). The assay is described as follows: Inhibition of HDAC in human HCT-116 cells assessed as upregulation of acetyl alpha-tubulin level at 1 to 5 uM incubated for 24 hrs by immunoblotting analysis. The note with it: dose 1-5 µM. Format: cell-based. In general terms: In western blotting, separated proteins are transferred to a membrane and probed.

Assay [3] deals with U-937. The assay is described as follows: Induction of cell cycle arrest in human U-937 assessed as reduced accumulation of cells in S phase at 1 uM incubated for 24 hrs by FACS analysis. Format: functional, cell-based. Background: Flow cytometry measures light scatter and fluorescence of single cells or particles in a stream.
Assay [4] concerns HCT-116. The assay can be described thus: Cytotoxicity against human HCT-116 cells assessed as cell death at 5 uM incubated for 24 hrs by PI staining based FACS analysis relative to control. Format: functional.
Assay [5] has as its system U-937. The assay is described as follows: Cytotoxicity against human U-937 cells assessed as cell death at 1 to 5 uM incubated for 24 hrs by PI staining based FACS analysis relative to control. The note with it: dose 1-5 µM. It is filed as functional.
Assay [6] deals with U-937. The assay is described as follows: Induction of cell cycle arrest in human U-937 assessed as decrease accumulation of cells in G1 phase at 5 uM incubated for 24 hrs by FACS analysis. It is filed as functional, cell-based.
Assay [7] concerns HCT-116. The assay can be described thus: Induction of cell cycle arrest in human HCT-116 assessed as accumulation of cells in G2/M phase at 1 to 5 uM incubated for 24 hrs by FACS analysis relative to SAHA. Format: functional. The note with it: dose 1-5 µM.
Assay [8] deals with HCT-116. The assay is described as follows: Induction of apoptosis in human HCT-116 cells assessed as increased p21 protein expression level at 1 to 5 uM incubated for 24 hrs by immunoblotting analysis. The note with it: dose 1-5 µM. Format: functional, cell-based.
Assay [9] relates to HCT-116. The assay can be described thus: Cytotoxicity against human HCT-116 cells assessed as reduction in cell death at 1 uM incubated for 24 hrs by PI staining based FACS analysis. It is filed as functional.
The subject of assay [10] is U-937. The assay is described as follows: Induction of cell cycle arrest in human U-937 assessed as increase accumulation of cells in G2/M phase at 1 to 5 uM incubated for 24 hrs by FACS analysis. It is filed as functional, cell-based. The settings on record: dose 1-5 µM.
The target in assay [11] is Histone deacetylase. Format: subcellular, Homo sapiens, Nucleus. The settings on record: hela.
Description: Inhibition of HDAC in human HeLa cell nuclear extract using Kac fluorogenic peptide as substrate containing residues 379-382 of p53 by fluorescence assay
For assay [12], the target named is T1, Histone deacetylase (Homo sapiens). The assay is described as follows: Inhibition of HDAC in human U-937 cells assessed as upregulation of acetyl alpha-tubulin level at 5 uM incubated for 24 hrs by immunoblotting analysis. Format: cell-based.
Assay [13] has as its target T2, Protein deacetylase HDAC6 (Homo sapiens) (UniProt Q9UBN7).
T2 sequence (whole entry): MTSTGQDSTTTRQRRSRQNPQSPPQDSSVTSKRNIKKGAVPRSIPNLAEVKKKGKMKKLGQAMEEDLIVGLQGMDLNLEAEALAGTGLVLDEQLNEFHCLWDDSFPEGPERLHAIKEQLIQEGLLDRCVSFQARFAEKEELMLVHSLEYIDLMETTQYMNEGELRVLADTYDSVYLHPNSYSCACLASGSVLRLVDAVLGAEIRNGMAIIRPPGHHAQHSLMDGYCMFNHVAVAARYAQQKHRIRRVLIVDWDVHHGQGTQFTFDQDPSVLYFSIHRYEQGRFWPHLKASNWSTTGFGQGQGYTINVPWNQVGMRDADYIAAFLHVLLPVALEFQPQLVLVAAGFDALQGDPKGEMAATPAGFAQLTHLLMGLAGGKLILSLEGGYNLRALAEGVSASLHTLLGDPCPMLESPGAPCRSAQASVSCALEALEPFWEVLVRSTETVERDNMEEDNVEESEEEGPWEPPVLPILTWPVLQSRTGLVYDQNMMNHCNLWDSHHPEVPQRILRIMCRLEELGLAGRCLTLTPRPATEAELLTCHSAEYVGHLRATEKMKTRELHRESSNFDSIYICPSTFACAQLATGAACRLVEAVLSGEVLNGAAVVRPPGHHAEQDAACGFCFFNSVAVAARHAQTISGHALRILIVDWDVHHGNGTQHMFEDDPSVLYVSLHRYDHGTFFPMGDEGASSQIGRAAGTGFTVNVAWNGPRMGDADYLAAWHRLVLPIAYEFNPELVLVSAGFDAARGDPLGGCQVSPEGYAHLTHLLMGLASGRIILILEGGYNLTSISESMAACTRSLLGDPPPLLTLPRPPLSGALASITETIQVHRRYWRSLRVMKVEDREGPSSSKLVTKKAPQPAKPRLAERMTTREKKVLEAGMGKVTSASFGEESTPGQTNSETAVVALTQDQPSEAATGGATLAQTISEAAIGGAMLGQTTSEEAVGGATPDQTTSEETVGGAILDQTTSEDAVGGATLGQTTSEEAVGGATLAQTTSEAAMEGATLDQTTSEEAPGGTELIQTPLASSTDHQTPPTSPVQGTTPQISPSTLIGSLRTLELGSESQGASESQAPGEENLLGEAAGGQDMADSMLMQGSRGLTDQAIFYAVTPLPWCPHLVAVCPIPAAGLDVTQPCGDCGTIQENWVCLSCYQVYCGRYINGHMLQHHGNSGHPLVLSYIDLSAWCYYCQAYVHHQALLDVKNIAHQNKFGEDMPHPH
The assay is described as follows: Inhibition of HDAC6 (unknown origin) at 10 uM using fluorogenic peptide as substrate pre-incubated for 15 mins followed by substrate addition incubated for 30 mins by fluorescence assay. The note with it: time 45.0 min.

The target in assay [14] is T1, Histone deacetylase (Homo sapiens). The assay can be described thus: Inhibition of HDAC in human U-937 cells assessed as upregulation of histone H3 acetylation at lysine 14 residue at 5 uM incubated for 24 hrs by immunoblotting analysis. Format: cell-based.
Assay [15] has as its system U-937. The assay can be described thus: Induction of cell cycle arrest in human U-937 assessed as decrease accumulation of cells in G1 phase at 1 to 5 uM incubated for 24 hrs by FACS analysis. It is filed as functional, cell-based. The note with it: dose 1-5 µM.
In assay [16] the test system is HCT-116. The assay can be described thus: Induction of cell cycle arrest in human HCT-116 assessed as decrease accumulation of cells in S phase at 1 to 5 uM incubated for 24 hrs by FACS analysis. Format: functional, cell-based. The settings on record: dose 1-5 µM.
Assay [17] deals with T3, Histone deacetylase 1 (Homo sapiens, UniProt Q13547). The assay can be described thus: Inhibition of HDAC1 (unknown origin) using fluorogenic peptide as the substrate containing residues 379-382 of p53 pre-incubated for 15 mins followed by substrate addition incubated for 30 mins by multimode plate reader.
Assay [18] concerns the target T1, Histone deacetylase (Homo sapiens). The assay can be described thus: Inhibition of HDAC in human HCT-116 cells assessed as upregulation of histone H3 acetylation at lysine 14 residue at 1 uM incubated for 24 hrs by immunoblotting analysis. It is filed as cell-based.
The subject of assay [19] is U-937. The assay is described as follows: Induction of cell cycle arrest in human U-937 assessed as decrease accumulation of cells in S phase at 1 to 5 uM incubated for 24 hrs by FACS analysis. It is filed as functional, cell-based. The note with it: dose 1-5 µM.
Assay [20] has as its target T1, Histone deacetylase (Homo sapiens). The assay can be described thus: Inhibition of HDAC in human U-937 cells assessed as upregulation of histone H3 acetylation at lysine 14 residue at 1 uM incubated for 24 hrs by immunoblotting analysis. Format: cell-based.
For assay [21], the system named is HCT-116. The assay is described as follows: Induction of cell cycle arrest in human HCT-116 assessed as decrease accumulation of cells in G1 phase at 1 to 5 uM incubated for 24 hrs by FACS analysis. Format: functional, cell-based. The note with it: dose 1-5 µM.
The target in assay [22] is T3, Histone deacetylase 1. The assay is described as follows: Inhibition of HDAC1 (unknown origin) at 10 uM using fluorogenic peptide as substrate pre-incubated for 15 mins followed by substrate addition incubated for 30 mins by fluorescence assay relative to control. The settings on record: time 45.0 min.

T3 sequence (Q13547 whole entry, the tested form may be a part): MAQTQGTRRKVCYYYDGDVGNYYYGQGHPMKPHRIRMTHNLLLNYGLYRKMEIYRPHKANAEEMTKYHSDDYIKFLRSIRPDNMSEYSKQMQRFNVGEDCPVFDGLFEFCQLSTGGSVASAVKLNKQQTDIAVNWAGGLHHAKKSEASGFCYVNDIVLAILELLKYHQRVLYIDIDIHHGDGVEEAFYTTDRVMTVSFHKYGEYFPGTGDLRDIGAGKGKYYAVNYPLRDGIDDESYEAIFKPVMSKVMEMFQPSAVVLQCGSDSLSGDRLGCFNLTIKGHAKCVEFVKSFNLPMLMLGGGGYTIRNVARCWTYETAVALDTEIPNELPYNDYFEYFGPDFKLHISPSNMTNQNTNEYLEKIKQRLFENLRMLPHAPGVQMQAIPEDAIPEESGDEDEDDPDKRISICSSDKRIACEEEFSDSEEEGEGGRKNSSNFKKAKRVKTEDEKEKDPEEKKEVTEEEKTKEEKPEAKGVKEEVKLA

Turning to `O=C(CCCCCN1C(=O)C[C@H](c2ccc(Cl)c(Cl)c2)Sc2ccccc21)NO`, the outcome in assay [1], in assay [2], in [3], in [5], in [6] and in [7] was Active. For the same compound, the result in assay [8], in assay [9], in assay [10] and in assay [12] was Active. In addition, the Activity in [4] is 22%. The compound further yielded a half-maximal inhibitory concentration (IC50) in assay [11] of 274.4 nM.
In turn, `O=C(CCCCCCC(=O)Nc1ccc([C@H]2O[C@@H](CSc3nc(-c4ccccc4)c(-c4ccccc4)o3)C[C@@H](c3ccc(CO)cc3)O2)cc1)NO` yielded an inhibition in assay [13] of 94.3%.
On to `Cc1ccc(C2CC(=O)N(CCCCCC(=O)NO)c3ccccc3S2)cc1` (racemic), for which the result in assay [1], in assay [2], in [3], in assay [5], in [6] and in assay [7] was Active. The outcome in assay [8], in assay [9], in [10], in assay [14] and in assay [12] was Active. The Activity in assay [4] amounted to 22%. In addition, the IC50 in [11] is reported as 123.4 nM.
Consider `Cc1ccc(C2CC(=O)N(CCCCCC(=O)NO)c3ccccc3S2(=O)=O)cc1` (racemic), for which the result in assay [1], in [15], in assay [2], in assay [16], in assay [7] and in [18] was Active. The outcome in [19], in assay [8], in assay [10], in assay [20], in assay [14] and in [21] was Active. For the same compound, the result in [12] was Active. Further, the figures for the inhibition in [13] and in [22] were 98.6% and 93.5%, respectively. The 50% inhibitory concentration (IC50) was 175 nM in assay [17] and 42.2 nM in [11]. In addition, the Activity in assay [5] is about 6%.
Take `O=C(CCCCCN1C(=O)CC(c2c3ccccc3cc3ccccc23)Sc2ccccc21)NO` (racemic): the outcome in assay [1], in assay [2], in assay [3], in assay [5], in [6] and in assay [7] was Active. Moreover, the result in [8], in assay [9], in [10], in assay [14] and in assay [12] was Active. The Activity in assay [4] was determined as 22%. Moreover, in assay [11], the IC50 was 246 nM.
`O=C(CCCCCN1C(=O)CC(c2ccccc2Cl)Sc2ccccc21)NO` (racemic): the outcome in assay [1], in [2], in [3], in assay [5], in assay [6] and in assay [7] was Active. Moreover, the result in [8], in assay [9], in [10], in [14] and in [12] was Active. Moreover, in [4], the Activity was 22%. In assay [11], the 50% inhibitory concentration (IC50) was 109.4 nM.
For `O=C(CCCCCN1C(=O)CC(c2cccc3ccccc23)Sc2ccccc21)NO` (racemic), the result in assay [1], in [2], in assay [3], in [5], in assay [6] and in assay [7] was Active. Further, the outcome in assay [8], in [9], in assay [10], in assay [20], in assay [14] and in assay [12] was Active. Moreover, the Activity in assay [4] is 22%. In addition, the IC50 in [11] amounted to 259.3 nM.
In the case of `COc1ccc(C2CC(=O)N(CCCCCC(=O)NO)c3ccccc3S2)cc1` (racemic), the outcome in assay [1], in assay [2], in assay [3], in assay [5], in assay [6] and in [8] was Active. Moreover, the outcome in assay [9], in assay [10], in [14] and in [12] was Active. Moreover, the Activity in [4] was 22%; in assay [7], about 75%. Further, in assay [11], the concentration for half-maximal inhibition (IC50) is 118.3 nM.
In the case of `COc1ccc(C2CC(=O)N(CCCCCC(=O)NO)c3ccccc3S2(=O)=O)cc1` (racemic), the outcome in [1], in [15], in [2], in [16], in assay [7] and in assay [18] was Active. Also, the result in assay [19], in assay [8], in assay [10], in [20], in assay [14] and in assay [21] was Active. In addition, the outcome in [12] was Active. Also, the results for the inhibition in [13] and in [22] were 95.8% and 94.2%, respectively. Also, the IC50 in assay [17] is 248 nM; in assay [11] it was 114.6 nM. Also, in assay [5], the Activity is given as about 6%.

The IC50 is the concentration that inhibits the measured activity by half. By inhibition is commonly meant the percentage by which the read-out fell short of the control.

The values above are taken from ChEMBL document CHEMBL5365438, “2-Substituted 1,5-benzothiazepine-based HDAC inhibitors exert anticancer activities on human solid and acute myeloid leukemia cell lines” (Bioorg Med Chem, 2023).
